± gives the expanded uncertainty stated by the source.
Assay: refractive index (Na D-line) (dimensionless); xn = mol fraction of the nth substance listed
Conditions: 101 kPa, Liquid, Standard Abbe refractometry

CCCCOCCO [2-butoxyethan-1-ol] + O
refractive index
Conditions | x1 = 0.1003 | x1 = 0.2 | x1 = 0.3 | x1 = 0.4 | x1 = 0.5 | x1 = 0.6 | x1 = 0.7 | x1 = 0.7999 | x1 = 0.9 | x1 = 1
283.15 K | 1.3785 ± 0.0008 | 1.3965 ± 0.00041 | 1.4061 ± 0.00042 | 1.4118 ± 0.00046 | 1.4156 ± 0.00048 | 1.41823 ± 0.00049 | 1.4199 ± 0.00051 | 1.4212 ± 0.00052 | 1.4221 ± 0.00053 | 1.4226 ± 0.00054
293.15 K | 1.37658 ± 0.00046 | 1.39418 ± 0.00048 | 1.40355 ± 0.0005 | 1.4091 ± 0.00051 | 1.4128 ± 0.00052 | 1.41532 ± 0.00053 | 1.41695 ± 0.00054 | 1.41815 ± 0.00055 | 1.41905 ± 0.00056 | 1.4196 ± 0.00056
303.15 K | 1.374 ± 0.00048 | 1.39115 ± 0.00051 | 1.40025 ± 0.00054 | 1.40562 ± 0.00055 | 1.4092 ± 0.00056 | 1.4116 ± 0.00057 | 1.41315 ± 0.00058 | 1.4143 ± 0.00059 | 1.4152 ± 0.0006 | 1.4157 ± 0.00061
313.15 K | 1.37118 ± 0.0011 | 1.3878 ± 0.00054 | 1.39655 ± 0.00056 | 1.40175 ± 0.00057 | 1.4052 ± 0.00058 | 1.4075 ± 0.00059 | 1.40898 ± 0.0006 | 1.41012 ± 0.00061 | 1.41095 ± 0.00061 | 1.41139 ± 0.00062
323.15 K | – | 1.38385 ± 0.0013 | 1.39248 ± 0.00066 | 1.3976 ± 0.00062 | 1.401 ± 0.00062 | 1.4032 ± 0.00062 | 1.40465 ± 0.00061 | 1.40575 ± 0.00062 | 1.4066 ± 0.00063 | 1.40701 ± 0.00063

CCCCOCCOCCO [3,6-dioxa-1-decanol] + O
refractive index
Conditions | x1 = 0.1 | x1 = 0.2 | x1 = 0.2999 | x1 = 0.4 | x1 = 0.5 | x1 = 0.6 | x1 = 0.7 | x1 = 0.7998 | x1 = 0.8999 | x1 = 1
283.15 K | 1.3916 ± 0.0011 | 1.41105 ± 0.00041 | 1.42035 ± 0.00043 | 1.42548 ± 0.00048 | 1.4286 ± 0.00051 | 1.4307 ± 0.00053 | 1.4323 ± 0.00053 | 1.4334 ± 0.00055 | 1.4342 ± 0.00056 | 1.4347 ± 0.00057
293.15 K | 1.38935 ± 0.00046 | 1.40833 ± 0.00048 | 1.4174 ± 0.0005 | 1.42235 ± 0.00051 | 1.42535 ± 0.00052 | 1.42735 ± 0.00053 | 1.4289 ± 0.00053 | 1.4299 ± 0.00054 | 1.4307 ± 0.00055 | 1.4312 ± 0.00056
303.15 K | 1.38705 ± 0.00048 | 1.4057 ± 0.00051 | 1.4146 ± 0.00052 | 1.41942 ± 0.00053 | 1.4224 ± 0.00054 | 1.42428 ± 0.00054 | 1.4258 ± 0.00055 | 1.42675 ± 0.00056 | 1.4275 ± 0.00057 | 1.42805 ± 0.00057
313.15 K | 1.3842 ± 0.00051 | 1.4022 ± 0.00055 | 1.4109 ± 0.00057 | 1.41568 ± 0.00058 | 1.4185 ± 0.00059 | 1.4204 ± 0.00059 | 1.42185 ± 0.0006 | 1.42273 ± 0.00061 | 1.4234 ± 0.00062 | 1.424 ± 0.00062
323.15 K | 1.3808 ± 0.0015 | 1.3982 ± 0.0008 | 1.4067 ± 0.00068 | 1.4113 ± 0.00065 | 1.41405 ± 0.00063 | 1.4159 ± 0.00063 | 1.41725 ± 0.00064 | 1.41815 ± 0.00064 | 1.4188 ± 0.00064 | 1.4194 ± 0.00064

Reference: the NIST ThermoML archive (doi:10.1021/je900478c)
